The text below walks through data of US20210277003A1, “OGA INHIBITOR COMPOUNDS” (Janssen Pharmaceutica NV, priority 2018, published 2021).

The test system of assay [1] is OGA in HEK293 cells inducible for P301L mutant human Tau (isoform 2N4R). Nature of the assay: OGA cellular assay: immunocytochemical detection of O-GlcNAcylated proteins (CTD110.6 antibody). The format is cell-based. Particulars: 6 hours incubation; for Emax / EC50: Homo sapiens, HEK293, 6 h; for EC50: read-out: Cellular hOGA, pEC50 (converted). Here is the method:
HEK293 cells inducible for P301L mutant human Tau (isoform 2N4R) were established at Janssen. Thiamet-G was used for both plate validation (high control) and as reference compound (reference EC50 assay validation). OGA inhibition is evaluated through the immunocytochemical (ICC) detection of O-GlcNAcylated proteins by the use of a monoclonal antibody (CTD110.6; Cell Signaling, #9875) detecting 0-GlcNAcylated residues as previously described (Dorfmueller et al. 2010 Chemistry & biology, 17:1250). Inhibition of OGA will result in an increase of O-GlcNAcylated protein levels resulting in an increased signal in the experiment. Cell nuclei are stained with Hoechst to give a cell culture quality control and a rough estimate of immediate compounds toxicity, if any. ICC pictures are imaged with a Perkin Elmer Opera Phenix plate microscope and quantified with the provided software Perkin Elmer Harmony 4.1.
Cells were propagated in DMEM high Glucose (Sigma, #D5796) following standard procedures. 2 days before the cell assay cells are split, counted and seeded in Poly-D-Lysine (PDL) coated 96-wells (Greiner, #655946) plate at a cell density of 12,000 cells per cm^2 (4,000 cells per well) in 100p of Assay Medium (Low Glucose medium is used to reduce basal levels of GlcNAcylation) (Park et al. 2014 The Journal of biological chemistry 289:13519). At the day of compound test medium from assay plates was removed and replenished with 90 µl of fresh Assay Medium. 10p of compounds at a 10 fold final concentration were added to the wells. Plates were centrifuged shortly before incubation in the cell incubator for 6 hours. DMSO concentration was set to 0.2%. Medium is discarded by applying vacuum. For staining of cells medium was removed and cells washed once with 100 μl D-PBS (Sigma, #D8537). From next step onwards unless other stated assay volume was always 50p and incubation was performed without agitation and at room temperature. Cells were fixed in 50 μl of a 4% paraformaldehyde (PFA, Alpha aesar, #043368) PBS solution for 15 minutes at room temperature. […] Before analysis samples were washed 2 times manually for 5 minutes in ICC base buffer.
Imaging is performed using Perkin Elmer Phenix Opera using a water 20× objective and recording 9 fields per well. Intensity readout at 488 nm is used as a measure of O-GlcNAcylation level of total proteins in wells. To assess potential toxicity of compounds nuclei were counted using the Hoechst staining. IC50-values are calculated using parametric non-linear regression model fitting. As a maximum inhibition Thiamet G at a 200 uM concentration is present on each plate. In addition, a concentration response of Thiamet G is calculated on each plate.

The target of assay [2] is T1, recombinant human Meningioma Expressed Antigen 5 (MGEA5), also referred to as O-GlcNAcase (OGA) (Homo sapiens, UniProt O60502).
T1 construct: Full length OGA enzyme was purchased at OnGene (cat #TP322411); purchased OnGene (so in the source)
T1 sequence (O60502 1-916): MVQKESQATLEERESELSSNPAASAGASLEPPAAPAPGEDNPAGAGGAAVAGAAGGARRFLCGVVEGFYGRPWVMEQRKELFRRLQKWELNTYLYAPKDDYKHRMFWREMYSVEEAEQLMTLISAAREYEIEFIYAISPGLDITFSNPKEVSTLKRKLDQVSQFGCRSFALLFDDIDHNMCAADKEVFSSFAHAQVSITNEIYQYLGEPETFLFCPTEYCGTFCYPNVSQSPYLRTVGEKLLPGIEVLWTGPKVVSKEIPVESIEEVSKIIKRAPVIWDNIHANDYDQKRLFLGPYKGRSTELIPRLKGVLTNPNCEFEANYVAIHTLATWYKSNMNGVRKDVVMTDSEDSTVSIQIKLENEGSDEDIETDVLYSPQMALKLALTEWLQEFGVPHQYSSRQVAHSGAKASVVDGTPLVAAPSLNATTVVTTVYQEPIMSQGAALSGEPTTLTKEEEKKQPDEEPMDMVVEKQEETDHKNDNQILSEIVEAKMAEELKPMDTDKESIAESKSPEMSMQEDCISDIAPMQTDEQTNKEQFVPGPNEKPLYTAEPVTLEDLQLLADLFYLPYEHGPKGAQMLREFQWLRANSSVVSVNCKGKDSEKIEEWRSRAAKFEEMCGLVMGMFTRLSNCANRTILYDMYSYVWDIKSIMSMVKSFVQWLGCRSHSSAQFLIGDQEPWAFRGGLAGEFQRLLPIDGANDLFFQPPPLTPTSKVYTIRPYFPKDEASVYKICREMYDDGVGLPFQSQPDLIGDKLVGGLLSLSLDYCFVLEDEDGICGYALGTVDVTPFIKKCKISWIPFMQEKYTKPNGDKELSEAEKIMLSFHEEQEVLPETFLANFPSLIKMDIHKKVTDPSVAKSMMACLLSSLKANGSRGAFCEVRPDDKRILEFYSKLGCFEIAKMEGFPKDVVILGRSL
Nature of the assay: OGA biochemical assay: inhibition of hydrolysis of fluorescein mono-ß-D-N-Acetyl-Glucosamine (FM-GlcNAc), fluorescence readout. The following applies: FM-GlcNAc substrate; for Emax: read-out: Enzymatic Emax (%); for IC50: read-out: Enzymatic hOGA, pIC50 (converted). The source says:
The assay is based on the inhibition of the hydrolysis of fluorescein mono-ß-D-N-Acetyl-Glucosamine (FM-GlcNAc) (Mariappa et al. 2015, Biochem J 470:255) by the recombinant human Meningioma Expressed Antigen 5 (MGEA5), also referred to as O-GlcNAcase (OGA). The hydrolysis FM-GlcNAc (Marker Gene technologies, cat #M1485) results in the formation of ß-D-N-glucosamineacetate and fluorescein. The fluorescence of the latter can be measured at excitation wavelength 485 nm and emission wavelength 538 nm. An increase in enzyme activity results in an increase in fluorescence signal. Full length OGA enzyme was purchased at OnGene (cat #TP322411). The enzyme was stored in 25 mM Tris.HCl, pH 7.3, 100 mM glycine, 10% glycerol at −20° C. Thiamet G and GlcNAcStatin were tested as reference compounds (Yuzwa et al. 2008 Nature Chemical Biology 4:483; Yuzwa et al. 2012 Nature Chemical Biology 8:393). The assay was performed in 200 mM Citrate/phosphate buffer supplemented with 0.005% Tween-20. 35.6 g Na2HPO4 2 H2O (Sigma, #C0759) were dissolved in 1 L water to obtain a 200 mM solution. 19.2 g citric acid (Merck, #1.06580) was dissolved in 1 L water to obtain a 100 mM solution. pH of the sodium phosphate solution was adjusted with the citric acid solution to 7.2. The buffer to stop the reaction consists of a 500 mM Carbonate buffer, pH 11.0. 734 mg FM-GlcNAc were dissolved in 5.48 mL DMSO to obtain a 250 mM solution and was stored at −20° C. OGA was used at a 2 nM concentration and FM-GlcNAc at a 100 uM final concentration. Dilutions were prepared in assay buffer. 50 nl of a compound dissolved in DMSO was dispensed on Black Proxiplate™ 384 Plus Assay plates (Perkin Elmer, #6008269) and 3 μl fl-OGA enzyme mix added subsequently. Plates were pre-incubated for 60 min at room temperature and then 2 μl FM-GlcNAc substrate mix added. […] Plates were briefly centrifuged for 1 min at 1000 rpm and incubate at room temperature for 6 h. To stop the reaction 5 μl STOP buffer were added and plates centrifuge again 1 min at 1000 rpm. Fluorescence was quantified in the Thermo Scientific Fluoroskan Ascent or the PerkinElmer EnVision with excitation wavelength 485 nm and emission wavelength 538 nm. For analysis a best-fit curve is fitted by a minimum sum of squares method. From this an IC50 value and Hill coefficient was obtained. High control (no inhibitor) and low control (saturating concentrations of standard inhibitor) were used to define the minimum and maximum values.

The Emax is the greatest response seen or fitted, relative to the assay's reference.

Regarding `Cc1ccnc(C)c1Nc1nccc2c1ccn2CC1CCO1` (single isomer, unassigned) [Compound 25a], in assay [1], the “Cellular hOGA; pEC50” value came to 7.3. Also, the Emax in assay [1] (maximum = Thiamet G 200 uM) was found to be 92%. Also, in assay [2], the Emax stood at 102% and the IC50 is 5.89 nM.
As to `Cc1ccnc(C)c1Nc1nccc2c1ccn2CC1CCO1` (single isomer, unassigned) [Compound 25b], the “Cellular hOGA; pEC50” value in assay [1] is 7.63. In addition, in assay [1] (maximum = Thiamet G 200 uM), the “Cellular Emax (%)” value is 90%. In assay [2], the “Enzymatic Emax (%)” value was 101% and the IC50 is 4.57 nM.
Turning to `Cc1cncc(C)c1Nc1nccc2c1ccn2CC1CC1(F)F` (stereo not shown) [Compound 1], in assay [1] (maximum = Thiamet G 200 uM), the Emax was 56%. The EC50 in assay [1] was 708 nM. In assay [2], the Emax was determined as 102% and the IC50 was 151 nM.
For `CCCCn1ccc2c(Nc3c(C)cncc3Cl)nccc21` [Compound 5], in assay [1] (maximum = Thiamet G 200 uM), the Emax is 67%. Further, the EC50 in assay [1] was 67.6 nM. In assay [2], the “Enzymatic hOGA; pIC50” value is reported as 7.95 and the Emax came out at 101%.
Taken in the same sequence, the figures for `CCCCn1ccc2c(Nc3c(C)ccnc3C)nccc21` [Compound 6] were 89%, 50.1 nM, 8.16 and 102%.
For `FCCCCn1ccc2c(Nc3c(Cl)cccc3Cl)nccc21` [Compound 7] the same measures were 84%, 214 nM, 7.98 and 103%.
Taken in the same sequence, the figures for `CCCCn1ccc2c(Nc3c(Cl)ccc4c3CCO4)nccc21` [Compound 8] were 87%, 110 nM, 8.11 and 102%.
The molecule `CCC(C)Cn1ccc2c(Nc3c(Cl)cccc3Cl)nccc21.Cl` (stereo not shown) [Compound 9] registered an Emax in assay [1] (maximum = Thiamet G 200 uM) of 85%. In assay [1], the EC50 was 30.2 nM. Moreover, in assay [2], the “Enzymatic hOGA; pIC50” value was determined as 8.42 and the Emax amounted to 105%.
For `CCCCn1ccc2c(Nc3c(C)ccc4[nH]c(C)nc34)nccc21` [Compound 11] the same measures were 80%, 288 nM, 7.06 and 100%.
For `CCCCn1ccc2c(Nc3c(C)ccc4[nH]nnc34)nccc21` [Compound 12] the same measures were 64%, 562 nM, 7.31 and 99%.
Taken in the same sequence, the figures for `CCCCn1ccc2c(Nc3c(C)ccc(C(=O)N4CCOCC4)c3C)nccc21` [Compound 13] were 87%, 28.2 nM, 8.49 and 105%.
For the molecule `CCCCn1ccc2c(Nc3c(Cl)ccc4c3ccn4C)nccc21` [Compound 14], the Emax in assay [1] (maximum = Thiamet G 200 uM) stood at 80%. Besides, the EC50 in assay [1] was 182 nM. In addition, in assay [2], the “Enzymatic hOGA; pIC50” value is on record as 8.54 and the Emax was determined as 103%.
For `CCCCn1ccc2c(Nc3c(C)ccc4cccnc34)nccc21` [Compound 15] the same measures were 71%, 562 nM, 7.18 and 101%.
For `CCC(C)Cn1ccc2c(Nc3c(C)ccnc3C)nccc21.Cl` (stereo not shown) [Compound 16] the same measures were 85%, 32.4 nM, 7.83 and 101%.
Taken in the same sequence, the figures for `CCCCn1ccc2c(Nc3c(Cl)cnc4c3OCCO4)nccc21` [Compound 18] were 62%, 575 nM, 7.46 and 102%.
For the molecule `CCCCn1ccc2c(Nc3c(C)cnnc3C(C)C)nccc21` [Compound 19], the values for the Emax in assay [1] (maximum = Thiamet G 200 uM) and in assay [2] were 94% and 102%, respectively. The EC50 in assay [1] was 83.2 nM. Further, the “Enzymatic hOGA; pIC50” value in assay [2] stood at 7.8.
